Where two headings read alike, the source gives them in different places.
Legend:
V-src kinase = V-src kinase assay; format: biochemical; details: at 50 μM
Procedure: V-src and C-src Kinase Assays
V-src or C-src kinase is purified from baculovirus infected insect cell lysates using an antipeptide monoclonal antibody directed against the N-terminal 2-17 amino acids. The antibody, covalently linked to 0.65-μm latex beads, is added to a suspension of insect cell lysis buffer comprised of 150 mM NaCl, 50 mM Tris pH 7.5, 1 mM DTT, 1% NP-40, 2 mM EGTA, 1 mM sodium vanadate, 1 mM PMSF, 1 μg/mL each of leupeptin, pepstatin, and aprotinin. Insect cell lysate containing either the c-src or v-src protein is incubated with these beads for 3-4 hours at 4° C. with rotation. At the end of the lysate incubation, the beads are rinsed 3 times in lysis buffer, resuspended in lysis buffer containing 10% glycerol, and frozen. These latex beads are thawed, rinsed three times in assay buffer which is comprised of 40 mM tris pH 7.5, 5 mM MgCl2, and suspended in the same buffer. In a Millipore 96-well plate with a 0.65 μm polyvinylidine membrane bottom are added the reaction components: 10-μL v-src or c-src beads, 10 μL of 2.5 mg/mL poly GluTyr substrate, 5 μM ATP containing 0.2 μCi labeled ^32 P-ATP, 5μL DMSO containing inhibitors or as a solvent control, and buffer to make the final volume 125 μL. The reaction is started at room temperature by addition of the ATP and quenched 10 minutes later by the addition of 125 μL of 30% TCA, 0.1M sodium pyrophosphate for 5 minutes on ice. The plate is then filtered and the wells washed with two 250-μL aliquots of 15% TCA, 0.1M pyrophosphate. The filters are punched, counted in a liquid scintillation counter, and the data examined for inhibitory activity in comparison to a known inhibitor such as erbstatin. The method is described more fully in J. Med. Chem., 37:598-609 (1994).

[1] = biological target: T1, human FGF-1 (flg) receptor tyrosine kinase (Homo sapiens, UniProt P11362); assay: FGF receptor tyrosine kinase assay; format: biochemical; details: read-out: Inhibition of Protein Tyrosine Kinases, FGF, IC50
T1 construct: a fragment of DNA that codes for the intracellular tyrosine kinase domain; made in house; host or cells: Sf9 insect cells (baculovirus), cell lysate
T1 sequence (P11362 478-767 limits assumed): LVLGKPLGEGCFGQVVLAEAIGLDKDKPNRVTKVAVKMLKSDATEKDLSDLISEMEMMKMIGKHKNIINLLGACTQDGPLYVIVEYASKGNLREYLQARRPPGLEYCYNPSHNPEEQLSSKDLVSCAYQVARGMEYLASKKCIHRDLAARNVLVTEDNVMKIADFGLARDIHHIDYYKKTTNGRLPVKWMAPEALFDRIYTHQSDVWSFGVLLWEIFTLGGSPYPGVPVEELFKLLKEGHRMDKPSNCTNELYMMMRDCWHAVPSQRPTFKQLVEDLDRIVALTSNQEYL
Summary of the method: (§1)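 Intracellular kinase domains expressed in baculovirus-infected SF9 cells; crude lysate used as enzyme. Inhibitor preincubated 10 min at 25 °C with lysate in pH 7.0 Hepes buffer with 10 mM MnCl2 and poly(Glu-Tyr) 4:1, then γ-32P-ATP (50 μM ATP) added for 10 min at 25 °C. TCA-precipitated 32P on filters counted, no-enzyme background subtracted.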

[2] = system: Rat aorta smooth muscle cells (RASMC); assay: [3H]-Thymidine incorporation assay in RASMC; format: cell-based; details: read-out: Inhibition of Growth Factor Stimulated Uptake of [3H]-thymidine (IC50)
Procedure: Cell Culture Rat aorta smooth muscle cells (RASMC) were isolated from the thoracic aorta of rats and explanted according to the method of Ross, J. Cell. Biol., 30:172-186 (1971). Cells were grown in Dulbecco's modified Eagle's medium (DMEM, Gibco) containing 10% fetal calf serum (FBS, Hyclone, Logan, Utah), 1% glutamine (Gibco) and 1% penicillin/streptomycin (Gibco). Cells were identified as smooth muscle cells by their "hill and valley" growth pattern and by fluorescent staining with a monoclonal antibody specific for SMC […] (Sigma). RASMC were used between passages 5 and 20 for all experiments. Test compounds were prepared in dimethylsulfoxide (DMSO) in order to achieve consistency in the vehicle and to ensure compound solubility. Appropriate DMSO controls were simultaneously evaluated with the test compounds. […] RASMC were plated into a 24-well plate (30,000 cells/well) in DMEM with 10% FBS. After 4 days, cells reached confluence and were made quiescent by incubation in DMEM/F12 medium (Gibco) containing 0.2% FBS for another 2 days. […] […] The acid-insoluble fraction was lysed in 0.75 mL 0.25N NaOH and the radioactivity determined by liquid scintillation counting. IC50 values were determined graphically.

[3] = biological target: T2, mouse PDGF-β receptor tyrosine kinase (Mus musculus, UniProt P05622); assay: PDGF receptor tyrosine kinase assay; format: biochemical; details: for IC50: read-out: Inhibition of Protein Tyrosine Kinases, PDGF, IC50
T2 construct: a fragment of DNA that codes for the intracellular tyrosine kinase domain; made in house; host or cells: Sf9 insect cells (baculovirus), cell lysate
T2 sequence (P05622 599-961 limits assumed): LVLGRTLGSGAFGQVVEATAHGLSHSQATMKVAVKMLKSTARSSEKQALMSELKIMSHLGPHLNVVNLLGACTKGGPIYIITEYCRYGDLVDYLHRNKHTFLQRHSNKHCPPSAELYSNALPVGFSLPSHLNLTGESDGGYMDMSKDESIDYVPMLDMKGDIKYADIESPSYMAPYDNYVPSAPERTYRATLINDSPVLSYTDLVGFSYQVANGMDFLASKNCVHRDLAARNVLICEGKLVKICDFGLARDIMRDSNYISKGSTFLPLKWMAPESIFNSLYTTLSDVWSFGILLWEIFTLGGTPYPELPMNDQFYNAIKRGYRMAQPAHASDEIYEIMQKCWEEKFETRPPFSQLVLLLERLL
Summary of the method: as §1

PDGF receptor = PDGF receptor autophosphorylation in RASMC; format: cell-based, rat; details: PDGF-BB 30 ng/mL, read-out: Inhibition of PDGF Stimulated Receptor Auto Phosphorylation (IC50)
Procedure: Rat aorta smooth muscle cells (RASMC) were isolated from the thoracic aorta of rats and explanted according to the method of Ross, J. Cell. […] Cells were grown in Dulbecco's modified Eagle's medium (DMEM, Gibco) containing 10% fetal calf serum (FBS, Hyclone, Logan, Utah), 1% glutamine (Gibco) and 1% penicillin/streptomycin (Gibco). Cells were identified as smooth muscle cells by their "hill and valley" growth pattern and by fluorescent staining with a monoclonal antibody specific for SMC μ-actin (Sigma). RASMC were used between passages 5 and 20 for all experiments. Test compounds were prepared in dimethylsulfoxide (DMSO) in order to achieve consistency in the vehicle and to ensure compound solubility. Appropriate DMSO controls were simultaneously evaluated with the test compounds.
PDGF Receptor Autophosphorylation
RASMC were grown to confluency in 100 mm dishes. Growth medium was removed and replaced with serum-free medium and cells were incubated at 37° C. for an additional 24 hours. Test compounds were then added directly to the medium and cells incubated for an additional 2 hours. After 2 hours, PDGF-BB was added at a final concentration of 30 ng/mL for 5 minutes at 37° C. to stimulated autophosphorylation of the PDGF receptor. Following growth factor treatment, the medium was removed, and cells were washed with cold phosphate-buffered saline and immediately lysed with 1 mL of lysis buffer (50 mM HEPES[pH 7.5], 150 mM NaCl, 10% glycerol, 1% Triton X-100, 1 mM EDTA, 1 mMEGTA, 50 mM NaF, 1 mM sodium orthovanadate, 30 mM p-nitrophenyl phosphate, 10 mM sodium pyrophosphate, 1 mM phenylmethyl sulfonyl fluoride, 10 μg/mL aprotinin, and 10 μg/mL leupeptin). Lysates were centrifuged at 10,000×g for 10 minutes. […] Following the incubation, protein-A-sepharose beads were added for 2 hours with continuous mixing, and immune complexes bound to the beads washed 4 times with 1 mL lysis wash buffer. Immune complexes were solubilized in 30 μL of Laemmli sample buffer and electrophoresed in 4-20% SDS polyacrylamide gels. Following electrophoresis, separated proteins were transferred to nitrocellulose and immunoblotted with anti-phosphotyrosine antiserum. […] IC50 values were generated from the densitometric data.

[4] = biological target: T3, Human EGF receptor tyrosine kinase (Homo sapiens, UniProt P00533); assay: EGF receptor tyrosine kinase assay; format: biochemical; details: for IC50: read-out: Inhibition of Protein Tyrosine Kinases, EGF, IC50; for inhibition at 50 µM: read-out: Inhibition of Protein Tyrosine Kinases, EGF, % Inhibition
T3 construct: isolated from A431 epidermoid carcinoma cells; endogenous in cells; host or cells: A431 epidermoid carcinoma cells (Triton lysate, wheat germ agglutinin eluate)
T3 sequence (P00533 25-1210): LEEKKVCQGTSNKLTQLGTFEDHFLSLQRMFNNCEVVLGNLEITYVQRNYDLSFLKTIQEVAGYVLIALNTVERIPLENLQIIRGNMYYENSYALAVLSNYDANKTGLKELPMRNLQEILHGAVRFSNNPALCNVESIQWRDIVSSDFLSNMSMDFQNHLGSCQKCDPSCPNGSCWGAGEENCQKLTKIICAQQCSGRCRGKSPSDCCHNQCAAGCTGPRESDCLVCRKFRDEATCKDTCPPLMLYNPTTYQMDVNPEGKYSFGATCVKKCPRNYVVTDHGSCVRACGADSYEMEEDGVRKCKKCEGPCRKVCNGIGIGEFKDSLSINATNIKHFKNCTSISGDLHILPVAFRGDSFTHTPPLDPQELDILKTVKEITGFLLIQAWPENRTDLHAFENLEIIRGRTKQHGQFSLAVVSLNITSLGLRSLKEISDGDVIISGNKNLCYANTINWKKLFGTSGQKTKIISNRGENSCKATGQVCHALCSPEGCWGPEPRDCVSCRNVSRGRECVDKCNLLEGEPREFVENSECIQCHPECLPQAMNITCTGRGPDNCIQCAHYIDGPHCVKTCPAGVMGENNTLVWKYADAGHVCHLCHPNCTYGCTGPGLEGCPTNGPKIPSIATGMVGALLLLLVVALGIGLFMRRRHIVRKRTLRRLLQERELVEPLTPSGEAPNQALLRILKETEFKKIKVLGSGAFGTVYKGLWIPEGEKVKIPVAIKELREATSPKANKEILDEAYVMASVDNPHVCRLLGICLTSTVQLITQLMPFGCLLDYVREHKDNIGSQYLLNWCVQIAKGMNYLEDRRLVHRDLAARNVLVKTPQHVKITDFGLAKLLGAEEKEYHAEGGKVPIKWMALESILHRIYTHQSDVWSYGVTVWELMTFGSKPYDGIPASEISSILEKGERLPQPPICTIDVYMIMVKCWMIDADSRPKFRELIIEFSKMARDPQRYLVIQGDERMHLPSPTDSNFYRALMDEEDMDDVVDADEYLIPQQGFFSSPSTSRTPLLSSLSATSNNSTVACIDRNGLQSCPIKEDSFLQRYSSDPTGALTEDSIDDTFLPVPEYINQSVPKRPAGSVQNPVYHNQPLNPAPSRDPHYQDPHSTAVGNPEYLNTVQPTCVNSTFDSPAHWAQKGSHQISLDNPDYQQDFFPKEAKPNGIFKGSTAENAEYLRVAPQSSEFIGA
Procedure: Purification of Epidermal Growth Factor Receptor Tyrosine Kinase
Human EGF receptor tyrosine kinase was isolated from A431 epidermoid carcinoma cells by the following methods. Cells were grown in roller bottles in 50% Delbuco's Modified Eagle and 50% HAM F-12 nutrient media (Gibco) containing 10% fetal calf serum. Approximately 10^9 cells were lysed in two volumes of buffer containing 20 mM 2-(4N-[2-hydroxyethyl]piperazin-1-yl)ethanesulfonic acid, pH 7.4, 5 mM ethylene glycol bis(2-aminoethyl ether)N,N,N',N'-tetraacetic acid, 1% Triton X-100, 10% glycerol, 0.1 mM sodium orthovanadate, 5 mM sodium fluoride, 4 mM pyrophosphate, 4 mM benzamide, 1 mM dithiothreitol, 80 μg/mL aprotinin, 40 μg/mL leupeptin, and 1 mM phenylmethylsulfonyl fluoride. After centrifugation at 25,000×g for 10 minutes, the supernatant was equilibrated for 2 hours at 4° C. with 10 mL of wheat germ agglutinin sepharose that was previously equilibrated with 50 mM Hepes, 10% glycerol, 0.1% Triton X-100 and 150 mM NaCl, pH 7.5, (equilibration buffer). Contaminating proteins were washed from the resin with 1M NaCl in equilibration buffer, and the enzyme was eluted with 0.5M N-acetyl-1-D-glucosamine in equilibration buffer.
Determination of IC50 Values
The reaction was terminated by the addition of 2 mL of 75 mM phosphoric acid and passed through a 2.5-cm phosphocellulose filter disc to bind the peptide. The filter was washed five times with 75 mM phosphoric acid and placed in a vial along with 5 mL of scintillation fluid (Ready gel Beckman).

C-src kinase = biological target: T4, C-src kinase (Homo sapiens, UniProt P12931); assay: C-src kinase assay; format: biochemical; details: for IC50: read-out: Inhibition of Protein Tyrosine Kinases, C-src, IC50
T4 construct: made in house; host or cells: baculovirus-infected insect cells
T4 sequence (P12931 whole entry): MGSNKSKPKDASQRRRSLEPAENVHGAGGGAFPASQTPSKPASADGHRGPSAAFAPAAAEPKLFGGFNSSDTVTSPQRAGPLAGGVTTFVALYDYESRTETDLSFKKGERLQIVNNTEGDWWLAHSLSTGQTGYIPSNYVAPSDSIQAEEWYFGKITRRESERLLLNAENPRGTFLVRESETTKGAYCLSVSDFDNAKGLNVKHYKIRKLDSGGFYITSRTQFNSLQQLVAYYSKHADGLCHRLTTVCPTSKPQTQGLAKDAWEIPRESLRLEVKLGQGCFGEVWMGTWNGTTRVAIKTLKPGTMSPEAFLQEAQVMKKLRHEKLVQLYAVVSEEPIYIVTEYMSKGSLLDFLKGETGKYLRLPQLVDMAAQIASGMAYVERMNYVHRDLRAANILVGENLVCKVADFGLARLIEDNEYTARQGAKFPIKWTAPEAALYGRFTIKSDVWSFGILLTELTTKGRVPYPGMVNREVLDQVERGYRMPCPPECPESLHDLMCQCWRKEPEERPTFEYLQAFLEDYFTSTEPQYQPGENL
Summary of the method: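 Baculovirus-expressed c-src immunopurified on antibody-coated latex beads, assayed in 40 mM Tris pH 7.5, 5 mM MgCl2 with poly GluTyr substrate and 5 μM ATP plus 32P-ATP. Reaction 10 min at room temperature, TCA-quenched, filtered; incorporated label counted by scintillation.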

Streptococcus pneumoniae = assay: standard in vitro assays of antibacterial activity; format: cell-based; details: Gram+ bacterial strain
Excerpt: These compounds are potent inhibitors of one or more of the protein kinases, PDGF, FGF, EGF, V-src, and C-src. The invention compounds are thus useful in treating atherosclerosis, restenosis, and cancer. Specific tumors to be treated with the compounds include small-cell lung carcinoma such as that described in An. Rev. Respir. Dis., 142:554-556 (1990); human breast cancer as described in Cancer Research, 52:4773-4778 (1992); low grade human bladder carcinomas of the type described in Cancer Research, 52:1457-1462 (1992); human colorectal cancer as discussed in J. Clin. Invest., 91:53-60 (1993); and in J. Surg. Res., 54:293-294 (1993). The compounds also are useful as antibiotics against bacteria such as Streptococcus pneumoniae. […] The compounds additionally are useful as herbicides against a wide variety of undesirable plants such as broad leaf weeds and grasses.

In the case of `CC(C)(C)NC(=O)Nc1nc2nc(N)ncc2cc1-c1c(Cl)cccc1Cl` [Example 3, 1-[2-Amino-6-(2,6-dichlorophenyl)-pyrido[2,3-d]pyrimidin-7-yl]-3-tert-butylurea], the “Inhibition of Protein Tyrosine Kinases, V-src, % Inhibition” value (“Inhibition … % Inhibition” below) (V-src kinase) is reported as 46.8%, the IC50 [1] is reported as 140 nM and the IC50 ([2]; FGF stimulated) is reported as 900 nM. For the same compound, the IC50 ([2]; PDGF stimulated) was 2700 nM, the IC50 [3] was 1250 nM and the IC50 (PDGF receptor) was 970 nM.

In the case of `Cc1cccc(C)c1-c1cc2cnc(N)nc2nc1NC(=O)NC(C)(C)C` [Example 6, 1-[2-Amino-6-(2,6-dimethylphenyl)-pyrido[2,3-d]pyrimidin-7-yl]-3-tert-butylurea], the “Inhibition … % Inhibition” value (V-src kinase) is reported as 39.8%, the IC50 [1] is reported as 397 nM and the IC50 (PDGF receptor) is reported as 350 nM. It also gave an IC50 [4] of 457 nM.

With `CCCCNc1nc2nc(N)ncc2cc1-c1ccccc1` [Example 9, N^7 -Butyl-6-phenyl-pyrido[2,3-d]pyrimidine-2,7-diamine] the IC50 (C-src kinase) was 18300 nM, the IC50 [1] was 10600 nM and the IC50 [3] was 25100 nM. The “activity against Streptococcus pneumoniae” value (Streptococcus pneumoniae) was “exhibited activity”.

With `Cc1ccccc1-c1cc2cnc(N)cc2nc1N` [Example 16, 3-o-Tolyl-[1,6]naphthyridine-2,7-diamine] the IC50 (C-src kinase) was 1380 nM, the “Inhibition … % Inhibition” value (V-src kinase) was 10.3% and the IC50 [1] was 9210 nM. It also gave an IC50 [3] of 10700 nM and an IC50 [4] of 7080 nM.

`Nc1cc2nc(N)c(-c3ccccc3Cl)cc2cn1` [Example 17, 3-(2-Chlorophenyl)-[1,6]naphthyridine-2,7-diamine] was tested, and the IC50 (C-src kinase) was 2760 nM, the “Inhibition … % Inhibition” value (V-src kinase) was 5.3% and the IC50 [1] was 4500 nM. The IC50 [3] was 27000 nM and the IC50 [4] was 7220 nM.

With `Nc1cc2nc(N)c(-c3c(Cl)cccc3Cl)cc2cn1` [Example 18, 3-(2,6-Dichlorophenyl)-[1,6]-naphthyridine-2,7-diamine] the IC50 (C-src kinase) was 514 nM, the “Inhibition … % Inhibition” value (V-src kinase) was 21.4% and the IC50 [1] was 1190 nM. The IC50 [3] was 21300 nM, the “activity against Streptococcus pneumoniae” value (Streptococcus pneumoniae) was “exhibited activity” and the IC50 [4] was 18200 nM.

For `CNc1ncc2cc(-c3ccccc3)c(NC)nc2n1` [Example 19, N^2,N^7 -Dimethyl-6-phenyl-pyrido[2,3-d]pyrimidine-2,7-diamine], the inhibition at 50 µM (C-src kinase; at 50 μM, read-out: Inhibition of Protein Tyrosine Kinases, C-src, % Inhibition) was 52.8%, the “Inhibition … % Inhibition” value (V-src kinase) was 5.2% and the IC50 [1] was 16900 nM. The inhibition at 50 µM ([3]; at 50 μM, read-out: Inhibition of Protein Tyrosine Kinases, PDGF, % Inhibition) was 47.7% and the inhibition at 50 µM [4] was 26.1%.

With `CCN(CC)CCCNc1ncc2cc(-c3c(Cl)cccc3Cl)c(NC(=O)NC(C)(C)C)nc2n1` [Example 21, 1-tert-Butyl-3-[6-(2,6-dichlorophenyl)-2-(3-diethylamino-propylamino)-pyrido[2,3-d]pyrimidin-7-yl]-urea] the IC50 (C-src kinase) was 73 nM, the “Inhibition … % Inhibition” value (V-src kinase) was 49.4% and the IC50 [1] was 82.4 nM. The IC50 [3] was 660 nM, the IC50 (PDGF receptor) was 1800 nM and the IC50 [4] was 6970 nM.

In the case of `CCNC(=O)Nc1nc2nc(N)ncc2cc1-c1c(Cl)cccc1Cl` [Example 22, 1-[2-Amino-6-(2,6-dichlorophenyl)-pyrido[2,3-d]pyrimidin-7-yl]-3-ethylurea], the IC50 (C-src kinase) is reported as 77 nM, the “Inhibition … % Inhibition” value (V-src kinase) is reported as 46.9% and the IC50 [1] is reported as 128 nM. It also gave an IC50 [3] of 1300 nM, an IC50 (PDGF receptor) of 3730 nM and an inhibition at 50 µM [4] of 90.4%.

With `CCCCNC(=O)Nc1ncc2cc(-c3c(Cl)cccc3Cl)c(NC(=O)NCCCC)nc2n1` [Example 25, 1-Butyl-3-[7-(3-butyl-ureido)-6-(2,6-dichlorophenyl)-pyrido[2,3-d]pyrimidin-2-yl]-urea] the IC50 (C-src kinase) was 207 nM, the “Inhibition … % Inhibition” value (V-src kinase) was 0.0% and the IC50 [1] was 11800 nM. For the same compound, the IC50 [3] was 6040 nM and the inhibition at 50 µM [4] was 57.5%.

`CN1CCN(CCCNc2ncc3cc(-c4c(Cl)cccc4Cl)c(NC(=O)NC(C)(C)C)nc3n2)CC1` [Example 52, 1-tert-Butyl-3-{6-(2,6-dichlorophenyl)-2-[3-(4-methyl-piperazin-1-yl)-propylamino]-pyrido[2,3-d]pyrimidin-7-yl}-urea] was tested, and the IC50 ([2]; FGF stimulated) was 400 nM, the IC50 ([2]; PDGF stimulated) was 450 nM and the IC50 (PDGF receptor) was 241 nM.

`CCN(CC)CCCCNc1ncc2cc(-c3c(Cl)cccc3Cl)c(NC(=O)NC(C)(C)C)nc2n1` [Example 123, 1-tert-Butyl-3-[6-(2,6-dichlorophenyl)-2-(4-diethyl-amino-butylamino)-pyrido[2,3-d]pyrimidin-7-yl]-urea] was tested, and the IC50 (C-src kinase) was 29 nM, the IC50 ([2]; FGF stimulated) was 320 nM and the IC50 ([2]; PDGF stimulated) was < 300 nM. It also gave an IC50 (PDGF receptor) of 296 nM.

In the case of `CCNC(=O)Nc1nc2nc(NCCCCN(CC)CC)ncc2cc1-c1c(Cl)cccc1Cl` [Example 124, 1-[6-(2,6-Dichlorophenyl)-2-(4-diethylamino-butyl-amino)-pyrido[2,3-d]pyrimidin-7-yl]-3-ethyl-urea], the IC50 ([2]; FGF stimulated) is reported as 930 nM, the IC50 ([2]; PDGF stimulated) is reported as 550 nM and the IC50 (PDGF receptor) is reported as 245 nM.

Reference: US5733913A, “6-Aryl pyrido[2,3-d] pyrimidines and naphthyridines for inhibiting protein tyrosine kinase mediated cellular proliferation” (priority 1995, dated 1998)
